Drawing on paper PMC13081163, “Discovery of a novel Nrf2 activator that modulates mitochondrial function in neurons by regulating DHRS3-Nrf2 interaction after ischemic stroke” (Theranostics, 2026), this text covers Kd for 1 compound.

The target of the test is Keap1 BTB domain fragment (48-149) (Homo sapiens, UniProt Q14145). Put plainly: SPR binding to truncated Keap1 (48-149). As to the method: The binding affinity of Cpd.51 or Oma to Keap1 proteins were measured using a Biacore T200. The overall experimental procedures were based on previous reports, [28]. Human recombinant Keap1 proteins or truncated form of Keap1 (residues 48-180 and residues 48-149) were captured on a CM5 chip by a standard amine coupling procedure. Binding sensorgrams were recorded by injecting various concentrations of Cpd.51 over the immobilized proteins surface. The dissociation constant was obtained by globally fitting the data (to the 1:1 Langmuir binding model using the Biacore Insight evaluation software (Cytiva, Marlborough, MA, USA). Affinity tests for Cpd.51 and DHRS3 were also performed using the aforementioned method.
A general note: SPR reads the build-up and loss of mass on a sensor chip optically.

Keap1 BTB domain fragment (48-149), sequence (Q14145 48-149): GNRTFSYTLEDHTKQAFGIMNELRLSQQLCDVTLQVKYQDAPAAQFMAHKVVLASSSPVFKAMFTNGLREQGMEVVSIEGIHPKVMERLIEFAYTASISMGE

Take `CC1(C)CCC2(C(=O)NO)CCC3(C)C(C(=O)C=C4C5(C)C=C(C#N)C(=O)C(C)(C)C5CCC43C)C2C1` (stereo not shown) [Cpd.51]: the Kd turned out to be 67.2 µM.

By Kd is commonly meant the concentration at which binding is half-saturated. Read a low Kd as higher affinity.
